Measured values: US20060100168A1, “Method of treating cancer using adenosine and its analogs” (The Trustee of Boston University, priority 2002, published 2006)
“Also recorded” adds a separate entry of the source.

Tests used:
[1] = test system: MCF-7 cells; assay: Anchorage-dependent growth assay (viable cell count, Trypan Blue); assay type: cell-based, human; settings: for Cell Growth / Effect on MCF-7 cell growth, in words: MCF-7; for Cell Growth: 2 days of treatment, compounds at 100 μM, except adenosine (500 μM) and inosine (1 mM), normalized to vehicle control (set to 1), negative = decrease vs count before treatment, average ± SD, three experiments; for Effect on MCF-7 cell growth, in words: summary of Table 1 and discussion
Method: Anchorage-dependent growth assay: Cells were plated into 6-well plates and grown overnight before treatments. The seeding concentration of MCF-7 cells was 2×10^5/well, which was determined during preliminary experiments as not allowing the cells to reach confluency within 3 days. Cells were treated either with vehicle or ligands, as indicated. Cells were detached by incubation with trypsin (Invitrogen, Carlsbad, Calif.) and counted with a hemacytometer before or after treatment.

[2] = test system: MCF-7 cells; assay: Apoptosis by propidium iodide staining and flow cytometry (sub-diploid events); assay type: cell-based, human; settings: 100 μM; for Apoptosis: 2 days of treatment, except adenosine (500 μM) and inosine (1 mM), number of apoptotic cells compared to vehicle control (set to 1), average ± SD; for Apoptosis, in words: two days
Method: (§1) Flow Cytometry and Apoptosis Analysis: Cells were detached from tissue culture plates by trypsin treatment. Cells were collected by centrifugation at 1200 g for 5 minutes and washed once with PBS. Staining of cells with propidium iodide and analysis on a flow cytometer (FACScan, Becton Dickinson, Research Triangle Park, N.C.) was performed as described before (42). Data were analyzed with CellQuest software (Becton Dickinson, Research Triangle Park, N.C.). The percentage of cells appearing with a ploidy level smaller than a diploid content was calculated as an estimate of cells undergoing apoptosis.

[3] = test system: estrogen receptor α (ERα); assay: ERα protein level by Western blot in MCF-7 cells; assay type: cell-based, human; settings: for ERα Level: 12 hours, 100 μM, except adenosine (500 μM), Western blot quantitated, vehicle control set to 1, average of two experiments; for ERα protein level, in words: Western blot
Method: Western Blot Analysis: Cells were washed three times in cold 1×PBS, and collected by scraping on ice. Western blot analysis was performed as we described before with the chemiluminescence method (41). […] Cyclin A, cyclin B1 and p27 antibodies were used at 1:500 dilutions. Cyclin E antibody was used at 1:1000 dilutions.

[4] = test system: MCF-7 cells; assay: Cell cycle analysis by flow cytometry; assay type: cell-based, human; settings: 100 μM, except adenosine (500 μM) and inosine (1 mM); for Percentage change of diploid (G0 or G1 phase) population compared to vehicle-treated cells: first number in parentheses; for Percentage change of S phase population compared to vehicle-treated cells: second number in parentheses; for Percentage change of tetraploid (G2 or M phase) population compared to vehicle-treated cells: third number in parentheses
Method: as §1

[5] = test system: MCF-7 cells; assay: Anchorage-independent growth (soft agar) assay; assay type: cell-based, human; settings: for Effect on anchorage-independent growth (colony formation), in words: different concentrations
Method: Anchorage-independent growth (soft agar) assay: Soft agar assay was performed as described (40) with the following modifications. Ligands were added into the bottom and top agar before plating into 6-well plates. Cells were treated with trypsin (Invitrogen, Carlsbad, Calif.) for 5 minutes in a 37° C. incubator and pipetted several times so that most cells were in single cell forms. Cells were counted with a hemacytometer (Hausser Scientific/VWR, So. Plainfield, N.J.), and 10,000 cells were mixed with top agar and plated into each well. After the top agar had solidified, two ml of medium containing the same treatment was added on top of the agar. This covering medium was changed every two days during culture. After two weeks of culture, each well was counted for the number of colonies formed on an Olympus IX70 microscope under 40× optical amplification. A cell colony was defined as any cluster of cells that contain more than 3 cells. The average of counts from 3 random optical fields for each well was taken as the colony number and analyzed. Each treatment was performed in triplicates. The averages and standard deviations shown in the figures were calculated based on triplicate experiments.

[6] = test system: MCF-7 cells; assay: Thymidine incorporation assay; assay type: cell-based, human; settings: treated 24 hours before thymidine
Method: (§2) Thymidine Incorporation Assay. Thymidine incorporation assays were performed as described (Zhang, Y., Wang, Z., and Ravid, K. The cell cycle in polyploid megakaryocytes is associated with reduced activity of cyclin B1-dependent cdc2 kinase. J Biol Chem, 271: 4266-4272, 1996) with modifications. Rat bone marrow cells were cultured in 25 cm^2 flasks at a concentration of 20×10^6 cells per 2 ml. After drug treatment for 24 hours, cells were incubated with ^3H-thymidine at a final concentration of 3 μCi/ml for 8 hours. For MCF-7 cells, cells were cultured in 6-well plates and incubated with ^3H-thymidine for 2 hours after drug treatment. Cells were divided into two portions, sixty percent of which were processed as described (Id.) to obtain tritium counts. The rest of the cells were lysed with Western blotting lysis buffer and protein concentrations were determined by Bio-Rad protein assay reagent (Bio-Rad, Hercules, Calif.). Tritium counts were normalized with corresponding protein concentrations to account for cell number variations.

[7] = test system: primary rat bone marrow cells; assay: Thymidine incorporation assay; assay type: cell-based; settings: 24 hours, IB-MECA at 100 μM
Method: as §2

SMILES | Cell Growth [1] | Apoptosis [2] | ERα Level [3] | Percentage change of diploid (G0 or G1 phase) population compared to vehicle-treated cells [4] [%] | Percentage change of S phase population compared to vehicle-treated cells [4] [%] | Percentage change of tetraploid (G2 or M phase) population compared to vehicle-treated cells [4] [%] | inhibition at 1000 µM ([5]; Homo sapiens, MCF7, 336 h, MCF-7 soft agar, 1 mM, two weeks, read-out: Inhibition of colony-forming ability) [%] | Effect on anchorage-independent growth (colony formation), in words ([5]; MCF-7 soft agar, two weeks) | Effect of nucleoside transporter inhibitor on growth inhibitory effect of IB-MECA ([1]; 10 μM) | Effect on cell growth by itself ([1]; at higher concentrations than 10 μM) | Effect on MCF-7 cell growth, in words [1] | Apoptosis, in words [2] | ERα protein level, in words [3] | Effect of A3AR antagonist on IB-MECA inhibitory effect on growth ([5]; MCF-7, antagonist up to 1 μM, not shown) | Effect on MCF-7 cell growth, in words ([1]; listed as 2-chloror-deoxyadenosine) | Thymidine incorporation decreased to [6] [%] | Thymidine incorporation reduced to [7] [%] | Cell Cycle Arrest (position of arrest) ([4]; flow cytometry)
Nc1ncnc2c1ncn2[C@@H]1O[C@H](CO)[C@@H](O)[C@H]1O [Adenosine] | 0.49 ± 0.04 | 1.06 ± 0.17 | 1.07 | −25 | −56 | 97 | ~50 | dose-dependent inhibition of colony formation |  |  |  |  |  |  |  |  |  | 
OCCN(CCO)c1nc(N2CCCCC2)c2nc(N(CCO)CCO)nc(N3CCCCC3)c2n1 [dipyridamole] |  |  |  |  |  |  |  |  | did not prevent the growth inhibitory effect of IB-MECA | inhibitory effect on cell growth |  |  |  |  |  |  |  | 
Nc1nc(Cl)nc2c1ncn2[C@@H]1O[C@H](CO)[C@@H](O)[C@H]1O [CADO, 2-chloro-adenosine] | −0.02 ± 0.02 | 0.84 ± 0.6 | 0.41 | −11 | 11 | 20 |  |  |  |  | significantly inhibited cell growth | without inducing apoptosis | significantly inhibited cell growth and ERα levels |  |  |  |  | 
OC[C@H]1O[C@@H](n2cnc3c(O)ncnc32)[C@H](O)[C@@H]1O [Inosine] | 0.90 ± 0.12 | 1.02 ± 0.14 |  | −24 | 43 | 8 |  | No effect |  |  | no significant effect on cell growth |  |  |  |  |  |  | 
CCOC(=O)C1=C(C)NC(c2ccccc2)=C(C(=O)OCc2ccccc2)C1C#Cc1ccccc1 (centres unmarked) [MRS1191] |  |  |  |  |  |  |  |  |  |  |  |  |  | did not abolish |  |  |  | 
Nc1nc(Cl)nc2c1ncn2[C@H]1C[C@H](O)[C@@H](CO)O1 [CdA, 2-chloro-2′-deoxyadenosine] | 0.13 ± 0.01 | 1.80 ± 0.17 |  | −69 | 165 | 20 |  |  |  |  |  | induced cellular apoptosis |  |  | significantly inhibited; also recorded: as effective at 1 μM (not shown) as at 100 μM | 43 | 32 | 
OC[C@H]1O[C@@H](n2cnc3c(NC4CCCC4)nc(Cl)nc32)[C@H](O)[C@@H]1O [CCPA, 2-Chloro-N^6-cyclopentyladenosine] | 0.79 ± 0.16 | 0.49 ± 0.12 | 1.16 | 3 | −18 | 11 |  | did not inhibit |  |  | no significant effect on cell growth; also recorded: did not have a significant effect |  |  |  |  |  |  | 
CCNC(=O)[C@H]1O[C@@H](n2cnc3c(N)nc(NCCc4ccc(CCC(=O)O)cc4)nc32)[C@H](O)[C@@H]1O [CGS21680, 2-p-(2-Carboxyethyl)phenethylamino-5′-N-ethylcarboxamidoadenosine] |  |  |  |  |  |  |  | did not inhibit |  |  | did not have a significant effect |  |  |  |  |  |  | 
CCNC(=O)[C@H]1O[C@@H](n2cnc3c(N)ncnc32)[C@H](O)[C@@H]1O [NECA, 5′-(N-Ethylcarboxamido)adenosine] | 0.90 ± 0.16 | 0.99 ± 0.05 | 0.92 | 0 | 3 | −3 |  | did not inhibit |  |  | no significant effect on cell growth; also recorded: did not have a significant effect |  | no significant change |  |  |  |  | Not Detectable
Nc1ncnc2c1ncn2[C@@H]1O[C@H](CO)C[C@H]1O [Cordycepin, 3′-deoxyadenosine] | 0.24 ± 6 | 0.43 ± 0.07 | 0.58 | −26 | 10 | 62 |  |  |  |  | significantly inhibited cell growth | without inducing apoptosis | significantly inhibited cell growth and ERα levels |  |  |  |  | 
